Reference: US20070105839A1, “2, 4-Di (phenylamino) pyrimidines useful in the treatment of proliferative disorders” (priority 2003, published 2007)
pIC50: −log10 of the molar value. “And” between values parts separate entries of the source, which are not always exact repeats. Equal entries are not always repeated. Where two headings read alike, the source gives them in different places.

Experiments:
[1] = test system: human KARPAS-299 lympoma cell line; assay: Antiproliferative action in KARPAS-299 lymphoma cell line; assay type: cell-based; conditions: KARPAS-299 cell line, same methodology as BaF3-NPM-ALK
[2] = target: T1, recombinant kinase domain of the ALK (Homo sapiens, UniProt Q9UM73); assay: Inhibition of ALK tyrosine kinase activity; assay type: biochemical; conditions: each compound tested twice, once each with two different preparations of ALK
T1 construct: using the recombinant kinase domain of the ALK
Protocol: The inhibition of ALK tyrosine kinase activity is measured using known methods, for example using the recombinant kinase domain of the ALK in analogy to the VEGF-R kinase assay described in J. Wood et al. Cancer Res. 60, 2178-2189 (2000). The table below reports the IC50 values for several compounds of the present invention. Each compound is tested twice, once each with two different preparations of ALK.

[3] = test system: human NPM-ALK overexpressing murine BaF3 cells (BaF3-NPM-ALK); assay: Growth inhibition of BaF3-NPM-ALK cells (Yopro staining); assay type: cell-based; conditions: Mus musculus, 48 h, two days incubation
Excerpt: The expression of NPM-ALK is achieved by transfecting the BaF3 cell line with an expression vector pCIneo™ (Promega Corp., Madison Wis., USA ) coding for NPM-ALK and subsequent selection of G418 resistant cells. Non-transfected BaF3 cells depend on IL-3 for cell survival. In contrast NPM-ALK expressing BaF3 cells (named BaF3-NPM-ALK) can proliferate in the absence of IL-3 because they obtain proliferative signal through NPM-ALK kinase. Putative inhibitors of the NPM-ALK kinase therefore abolish the growth signal and result in antiproliferaflve activity. The antiproliferative activity of putative inhibitors of the NPM-ALK kinase can however be overcome by addition of IL-3 which provides growth signals through an NPM-ALK independent mechanism. [for an analogous cell system using FLT3 kinase see E Weisberg et al. Cancer Cell; 1, 433-443 (2002). The inhibitory activity of the compounds of formula I is determined, briefly, as follows: BaF3-NPM-ALK cells (15 000/microtitre plate well) are transferred to 96-well microtitre plates. The test compounds [dissolved in dimethyl sulfoxide (DMSO)] are added in a series of concentrations (dilution series) in such a manner that the final concentration of DMSO is not greater than 1% (v/v). After the addition, the plates are incubated for two days during which the control cultures without test compound are able to undergo two cell-division cycles. The growth of the BaF3-NPM-ALK cells is measured by means of Yopro™ staining (T ldziorek et al. J. Immunol. Methods; 185:249-58 [1995]): 25 μl of lysis buffer consisting of 20 mM sodium citrate, pH 4.0, 26.8 mM sodium chloride, 0.4% NP40, 20 mM EDTA and […] to each well. Cell lysis was completed within 60 min at room temperature and total amount of Yopro bound to DNA was determined by measurement using the Cytofluor II 96-well reader (PerSeptive Biosystems) with the following settings: Excitation (nm) 485/20 and Emission (nm) 530/25.
IC50 values are determined by a computer-aided system using the formula: ICr50=[(ABStest−ABSstart)/(ABScontrol−ABSstart)]×100.

[4] = with IL3, read-out: BaF3 NPM-ALK with IL3 IC50
[5] = without IL3, read-out: BaF3 NPM-ALK without IL3 IC50

T1 sequence (Q9UM73 1116-1392 limits assumed): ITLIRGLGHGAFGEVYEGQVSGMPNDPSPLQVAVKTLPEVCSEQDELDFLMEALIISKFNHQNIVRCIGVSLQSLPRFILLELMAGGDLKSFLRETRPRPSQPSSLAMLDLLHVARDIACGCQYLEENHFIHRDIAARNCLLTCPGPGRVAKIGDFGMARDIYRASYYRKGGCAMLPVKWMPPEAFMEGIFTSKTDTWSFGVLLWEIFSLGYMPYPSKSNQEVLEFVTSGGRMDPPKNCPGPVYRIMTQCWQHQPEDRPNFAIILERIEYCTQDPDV

Structure (SMILES): CN(C)S(=O)(=O)c1ccccc1Nc1ccnc(Nc2cccc(OCCn3ccnc3)c2)n1 [Ex. 48]
- pIC50 [1]: 6.57
- pIC50 [2]: 7.32 and 7.08
- pIC50 [3, 4]: 5.85
- pIC50 [3, 5]: 6.26

Structure (SMILES): COc1cc(Nc2nccc(Nc3ccccc3S(=O)(=O)N(C)C)n2)cc(OC)c1OC [Ex. 56]
- pIC50 [1]: 6.82
- pIC50 [2]: 6.74 and 7.07
- pIC50 [3, 4]: 5.57
- pIC50 [3, 5]: 6.39

Structure (SMILES): CCCNS(=O)(=O)c1ccccc1Nc1ccnc(Nc2cc(OC)c(OC)c(OC)c2)n1 [Ex. 58]
- pIC50 [1]: 6.48
- pIC50 [2]: 7.34 and 7.05
- pIC50 [3, 4]: 5.59
- pIC50 [3, 5]: 6.25

Structure (SMILES): COc1cc(Nc2nccc(Nc3cccc(C)c3S(N)(=O)=O)n2)cc(OC)c1OC [Example 3, 2-methyl-6-[2-(3,4,5-Trimethoxy-phenylamino)-pyrimidin-4-ylamino]-benzenesulfonamide]
- melting point: 72 to 75 °C
